Where two headings read alike, the source gives them in different places.
Experiments:
[1] = biological target: human ACC2 (Homo sapiens, UniProt O00763); assay: Radiometric ACC inhibition assay, human ACC2; assay type: biochemical
Protocol: (§1) (-)-Epicgallocathechin gallate, EGCG (catalog no. 0981 S) was from Extrasynthese (Genay, France). […] Apparent permeability was assessed in low-efflux MDCKII cells. In vitro potencies of the inhibitors were determined using a radiometric assay. For tissue culture experiments, drugs were suspended in DMSO. Control cells were treated in parallel with the same amount of DMSO (vehicle). Cell viability was estimated in uninfected cells by ATP measurement using Cell Titer Glo luminescent cell viability assay (catalog no. G7579; Promega, Madison, WI). […] Cells were lysed by adding equal amounts of Cell Titer Glo reagent (100 µL/well) and gentle rocking (2 min) in an orbital shaker. The amount of ATP in each sample was determined by luminescence measurement using white microplates and a TECAN Genius (Zurich, Switzerland) microplate reader.

[2] = biological target: rat ACC2 (Rattus norvegicus, UniProt Q1HEC0); assay: Radiometric ACC inhibition assay, rat ACC2; assay type: biochemical
Protocol: as §1

[3] = Cell viability by ATP measurement (Cell Titer Glo) in uninfected Vero cells; settings: African green monkey
Protocol: as §1

[4] = biological target: rat ACC1 (Rattus norvegicus, UniProt P11497); assay: Radiometric ACC inhibition assay, rat ACC1; assay type: biochemical
Protocol: as §1

[5] = tested on: WNV; assay: Virucidal assay, WNV preincubated with compound then titrated by plaque assay; settings: 5 µg/mL, 1 h at 37°C
[6] = tested on: WNV; assay: WNV multiplication in Vero cells, virus yield by plaque assay; settings: for EC50: West Nile virus, Vero, 24 h, read-out: EC50 WNV; for SI (CC50/EC50) WNV: calculated at 24 h
[7] = tested on: DENV; assay: DENV multiplication in Vero cells, virus yield by plaque assay; settings: for EC50: Dengue virus, Vero, 48 h, read-out: EC50 DENV; for SI (CC50/EC50) DENV: calculated at 48 h
[8] = tested on: ZIKV; assay: ZIKV multiplication in Vero cells, virus yield by plaque assay; settings: for EC50: Zika virus, Vero, 24 h, read-out: EC50 ZIKV; for SI (CC50/EC50) ZIKV: calculated at 24 h
[9] = Mouse pharmacokinetics after a single oral dose; assay type: in vivo; settings: fasted male mice, mean ± SD, n = 3; for Cmax: male, read-out: Cmax, maximum plasma-concentration; for Cmax / AUC / Tmax: mouse, in vivo, po; for AUC: 0.5% methyl cellulose suspension, read-out: AUC(Exp), area under the plasma-concentration-time curve; for Tmax: read-out: Tmax, time to reach the maximum plasma-concentration
Protocol: (§2) Pharmacokinetics was analyzed after a single oral (p.o.) dose of the compounds (in a 0.5% methyl cellulose suspension) administered to fasted male mice. […] Antiviral activity in vivo was determined using eight-week-old Swiss albino CD-1 female mice (Envigo, Huntingdon, UK). […] Control mice were treated in parallel with drug vehicle (carboxymethylcellulose). For experiments evaluating the effect of genetic deletion of ACC2 gene on WNV infection, a breeding colony of C57BL/6 ACC2^-/- mice was established from two heterozygous Acab^tm1Dejs females. Age- and sex-matched eight-week-old ACC2^-/- and control wild type (WT) mice were challenged with WNV (1 × 10^4 PFU/animal, i.p.). Animals were monitored daily and received water and food ad libitum.

[10] = tested on: WNV; assay: Time of addition assay, WNV-infected Vero cells; assay type: cell-based, West Nile virus; settings: 5 µg/mL, MOI 1 PFU/cell, 24 h
[11] = biological target: human ACC1 (Homo sapiens, UniProt Q13085); assay: Radiometric ACC inhibition assay, human ACC1; assay type: biochemical
Protocol: as §1

[12] = Apparent permeability in low-efflux MDCKII cells; settings: dog, MDCK
Protocol: as §1

[13] = tested on: WNV; assay: Antiviral activity against WNV in mice, viral burden by quantitative RT-PCR; assay type: in vivo; settings: CD-1 female mice, 20 mg/kg p.o. twice a day
Protocol: as §2
RNA was automatically extracted using a QIAcube equipment (QIAGEN GmbH, Hilden, Germany) and QIAamp viral RNA Mini Kit (QIAGEN, catalog no. 52906) for sera or RNeasy Mini Kit (QIAGEN, catalog no. 74106) for tissue homogenates. The content of viral RNA in each sample was analyzed by real-time fluorogenic reverse transcriptase PCR by comparison with previously titrated samples and determined as PFU equivalents/mL [22].

[14] = single p.o. dose 100 mg/kg, 100 mg/kg
[15] = 100 mg/kg, single p.o. dose 100 mg/kg
[16] = WNV i.p., 7 days post-infection

rat ACC2, sequence (Q1HEC0 17-2455): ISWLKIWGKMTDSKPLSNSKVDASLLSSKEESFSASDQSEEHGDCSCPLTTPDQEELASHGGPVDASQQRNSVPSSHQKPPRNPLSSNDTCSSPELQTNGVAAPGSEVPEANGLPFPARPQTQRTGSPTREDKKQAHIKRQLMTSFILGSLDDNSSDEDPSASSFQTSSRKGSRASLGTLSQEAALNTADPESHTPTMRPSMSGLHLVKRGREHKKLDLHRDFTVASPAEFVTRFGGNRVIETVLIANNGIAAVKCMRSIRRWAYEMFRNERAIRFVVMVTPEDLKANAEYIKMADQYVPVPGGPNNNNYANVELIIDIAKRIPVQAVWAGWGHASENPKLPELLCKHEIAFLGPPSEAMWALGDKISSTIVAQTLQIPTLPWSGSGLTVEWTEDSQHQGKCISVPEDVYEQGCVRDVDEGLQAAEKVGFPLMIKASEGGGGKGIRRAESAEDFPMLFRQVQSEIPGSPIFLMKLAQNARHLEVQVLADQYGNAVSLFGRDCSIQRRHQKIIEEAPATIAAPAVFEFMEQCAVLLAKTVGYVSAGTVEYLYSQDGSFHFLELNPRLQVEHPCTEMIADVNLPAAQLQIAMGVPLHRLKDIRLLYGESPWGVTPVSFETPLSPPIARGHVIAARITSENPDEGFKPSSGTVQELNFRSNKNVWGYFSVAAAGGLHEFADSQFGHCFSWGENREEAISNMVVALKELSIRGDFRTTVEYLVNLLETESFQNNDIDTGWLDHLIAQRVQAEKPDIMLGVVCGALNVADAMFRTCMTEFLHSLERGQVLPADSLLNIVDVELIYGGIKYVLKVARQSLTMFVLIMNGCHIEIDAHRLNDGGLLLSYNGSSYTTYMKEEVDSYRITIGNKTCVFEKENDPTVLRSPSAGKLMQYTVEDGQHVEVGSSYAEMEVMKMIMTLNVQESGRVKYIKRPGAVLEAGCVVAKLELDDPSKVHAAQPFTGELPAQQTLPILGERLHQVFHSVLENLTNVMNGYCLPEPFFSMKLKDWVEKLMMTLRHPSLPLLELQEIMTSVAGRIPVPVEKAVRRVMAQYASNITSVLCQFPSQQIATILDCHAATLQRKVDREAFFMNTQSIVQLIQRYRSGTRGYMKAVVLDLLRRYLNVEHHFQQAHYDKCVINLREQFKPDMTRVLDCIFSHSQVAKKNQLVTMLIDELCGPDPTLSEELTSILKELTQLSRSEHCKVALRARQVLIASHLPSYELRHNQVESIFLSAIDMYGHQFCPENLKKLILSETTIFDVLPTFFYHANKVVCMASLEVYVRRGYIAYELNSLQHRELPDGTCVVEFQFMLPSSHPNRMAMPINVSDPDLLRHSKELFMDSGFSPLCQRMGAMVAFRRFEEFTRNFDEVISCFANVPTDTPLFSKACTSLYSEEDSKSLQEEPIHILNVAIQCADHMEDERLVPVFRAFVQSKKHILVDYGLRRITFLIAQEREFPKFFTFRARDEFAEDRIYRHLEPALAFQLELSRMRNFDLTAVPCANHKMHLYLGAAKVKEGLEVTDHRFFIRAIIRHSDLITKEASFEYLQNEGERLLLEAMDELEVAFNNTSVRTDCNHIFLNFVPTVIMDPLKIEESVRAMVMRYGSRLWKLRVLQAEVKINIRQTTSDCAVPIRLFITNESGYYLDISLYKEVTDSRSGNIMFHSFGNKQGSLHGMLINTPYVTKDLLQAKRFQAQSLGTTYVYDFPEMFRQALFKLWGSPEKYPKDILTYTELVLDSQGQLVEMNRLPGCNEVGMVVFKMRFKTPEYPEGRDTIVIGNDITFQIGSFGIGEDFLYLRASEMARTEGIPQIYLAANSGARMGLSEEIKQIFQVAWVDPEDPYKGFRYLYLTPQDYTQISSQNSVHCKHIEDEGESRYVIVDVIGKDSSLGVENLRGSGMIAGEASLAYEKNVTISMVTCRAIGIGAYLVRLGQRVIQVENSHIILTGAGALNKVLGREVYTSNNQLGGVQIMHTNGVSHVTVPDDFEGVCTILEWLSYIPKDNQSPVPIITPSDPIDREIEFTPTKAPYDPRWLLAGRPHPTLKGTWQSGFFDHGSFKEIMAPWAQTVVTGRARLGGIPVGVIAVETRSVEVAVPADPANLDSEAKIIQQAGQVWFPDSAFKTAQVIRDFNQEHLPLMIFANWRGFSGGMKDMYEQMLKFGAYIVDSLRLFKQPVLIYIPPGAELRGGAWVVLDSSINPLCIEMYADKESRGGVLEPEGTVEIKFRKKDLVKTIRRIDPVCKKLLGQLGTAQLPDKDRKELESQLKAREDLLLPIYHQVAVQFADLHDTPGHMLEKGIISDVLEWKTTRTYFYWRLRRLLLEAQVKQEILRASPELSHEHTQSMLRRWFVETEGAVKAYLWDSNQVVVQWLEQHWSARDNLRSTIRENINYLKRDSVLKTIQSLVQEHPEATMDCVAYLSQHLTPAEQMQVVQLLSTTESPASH
human ACC2, sequence (O00763 whole entry): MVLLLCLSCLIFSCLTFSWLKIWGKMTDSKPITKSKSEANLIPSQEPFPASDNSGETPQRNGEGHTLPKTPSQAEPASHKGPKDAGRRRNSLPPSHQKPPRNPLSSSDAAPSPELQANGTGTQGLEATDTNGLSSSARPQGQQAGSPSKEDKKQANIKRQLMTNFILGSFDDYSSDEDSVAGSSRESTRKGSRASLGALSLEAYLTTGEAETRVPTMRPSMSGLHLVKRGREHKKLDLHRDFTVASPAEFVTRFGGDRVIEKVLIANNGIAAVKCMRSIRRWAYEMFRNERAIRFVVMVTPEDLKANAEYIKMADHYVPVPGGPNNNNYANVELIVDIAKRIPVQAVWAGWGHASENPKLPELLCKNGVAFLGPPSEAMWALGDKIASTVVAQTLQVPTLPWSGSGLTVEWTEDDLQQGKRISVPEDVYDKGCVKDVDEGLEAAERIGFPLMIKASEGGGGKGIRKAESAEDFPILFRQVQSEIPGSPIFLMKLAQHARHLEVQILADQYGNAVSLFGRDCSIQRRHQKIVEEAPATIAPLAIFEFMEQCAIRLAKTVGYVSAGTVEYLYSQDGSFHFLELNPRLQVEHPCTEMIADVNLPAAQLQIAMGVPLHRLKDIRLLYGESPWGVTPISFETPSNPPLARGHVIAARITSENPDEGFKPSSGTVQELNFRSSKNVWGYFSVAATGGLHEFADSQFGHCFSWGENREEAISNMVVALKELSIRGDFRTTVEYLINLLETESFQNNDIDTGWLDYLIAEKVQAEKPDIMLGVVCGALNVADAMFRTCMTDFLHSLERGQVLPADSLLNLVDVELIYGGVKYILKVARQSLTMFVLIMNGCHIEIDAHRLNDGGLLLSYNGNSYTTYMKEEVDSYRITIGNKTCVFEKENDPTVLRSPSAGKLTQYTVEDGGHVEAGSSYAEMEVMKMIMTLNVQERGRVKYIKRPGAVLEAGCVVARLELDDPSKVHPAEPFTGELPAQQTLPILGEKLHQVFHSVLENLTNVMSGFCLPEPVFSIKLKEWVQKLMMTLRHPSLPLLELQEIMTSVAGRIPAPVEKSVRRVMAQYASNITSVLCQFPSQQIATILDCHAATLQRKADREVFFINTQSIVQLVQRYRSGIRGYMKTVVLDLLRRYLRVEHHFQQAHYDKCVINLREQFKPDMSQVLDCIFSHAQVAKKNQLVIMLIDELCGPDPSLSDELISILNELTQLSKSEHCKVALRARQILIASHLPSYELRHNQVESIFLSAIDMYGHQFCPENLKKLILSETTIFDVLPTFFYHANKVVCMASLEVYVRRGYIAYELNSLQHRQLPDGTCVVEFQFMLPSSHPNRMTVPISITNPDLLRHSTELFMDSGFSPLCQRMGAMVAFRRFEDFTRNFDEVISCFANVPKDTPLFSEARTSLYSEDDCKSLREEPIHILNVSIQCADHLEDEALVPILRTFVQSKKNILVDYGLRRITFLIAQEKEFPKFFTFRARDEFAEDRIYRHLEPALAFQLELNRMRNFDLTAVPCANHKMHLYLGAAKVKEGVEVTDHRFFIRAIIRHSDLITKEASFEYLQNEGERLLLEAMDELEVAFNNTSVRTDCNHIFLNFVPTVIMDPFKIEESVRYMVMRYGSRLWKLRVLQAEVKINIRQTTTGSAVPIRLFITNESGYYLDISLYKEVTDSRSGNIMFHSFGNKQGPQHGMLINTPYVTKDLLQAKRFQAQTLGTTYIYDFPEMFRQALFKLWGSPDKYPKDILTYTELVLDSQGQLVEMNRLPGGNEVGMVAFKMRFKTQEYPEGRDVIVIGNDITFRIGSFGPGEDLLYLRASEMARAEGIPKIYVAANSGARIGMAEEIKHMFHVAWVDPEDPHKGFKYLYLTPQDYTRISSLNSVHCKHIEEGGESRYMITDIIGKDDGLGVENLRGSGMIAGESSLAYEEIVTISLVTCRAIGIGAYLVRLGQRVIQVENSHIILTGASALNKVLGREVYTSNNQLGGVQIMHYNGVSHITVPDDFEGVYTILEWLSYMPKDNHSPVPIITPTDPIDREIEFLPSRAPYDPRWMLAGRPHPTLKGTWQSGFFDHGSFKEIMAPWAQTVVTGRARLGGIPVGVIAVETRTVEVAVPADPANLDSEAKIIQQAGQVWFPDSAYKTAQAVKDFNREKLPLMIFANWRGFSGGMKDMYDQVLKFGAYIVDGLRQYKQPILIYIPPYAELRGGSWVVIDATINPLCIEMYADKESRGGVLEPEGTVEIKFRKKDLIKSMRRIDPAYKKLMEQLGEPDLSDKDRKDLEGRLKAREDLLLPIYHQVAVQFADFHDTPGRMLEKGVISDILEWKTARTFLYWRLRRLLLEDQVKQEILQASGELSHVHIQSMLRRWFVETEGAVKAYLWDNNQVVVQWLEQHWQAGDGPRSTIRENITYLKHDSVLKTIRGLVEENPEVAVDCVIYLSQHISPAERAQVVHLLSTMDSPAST

| Compound | IC50 [1] [µM] | IC50 [2] [µM] | CC50 at 24 h [3] [µM] | CC50 at 48 h [3] [µM] | IC50 [4] [µM] | Virucidal effect, remaining WNV infectivity [5] | EC50 [6] [µM] | SI (CC50/EC50) WNV [6] | EC50 [7] [µM] | SI (CC50/EC50) DENV [7] | EC50 [8] [µM] | SI (CC50/EC50) ZIKV [8] | Cmax, maximum plasma-concentration [9, 14] [ng/mL] | Cmax [9, 15] [ng/mL] | AUC ([9]; single p.o. dose 100 mg/kg) [ng·h/mL] | Tmax ([9]; single p.o. dose 100 mg/kg) [min] | WNV yield, drug added only 1 h before virus inoculation (pre-infection) [10] | IC50 [11] [µM] | Papp [12] [×10⁻⁶ cm/s] | also measured |
| --- | --- | --- | --- | --- | --- | --- | --- | --- | --- | --- | --- | --- | --- | --- | --- | --- | --- | --- | --- | --- |
| CC(C)n1ncc2c1C(=O)CC1(CCN(C(=O)c3cc4ncccc4[nH]3)CC1)C2 [PF-05206574] | 0.022 ± 0.009 | 0.018 ± 0.004 | > 1280 | 415 ± 67 | 0.014 ± 0.003 | Lack of virucidal effect | 1.9 ± 0.9 | >672 | < 1.3 | >319 | < 1.3 | >982 | 760 ± 240 | 760 to 1070 | 3700 ± 1440 | 23 ± 12 | reduced the infection | 0.019 ± 0.004 | 19 | – |
| COc1ccc2ncc(C(=O)N3CCC4(CC3)CC(=O)c3c(cnn3C(C)C)C4)cc2c1 [PF-06256254] | 0.01 ± 0.002 | 0.015 | 718 ± 314 | 202 ± 22 | 0.011 | Lack of virucidal effect | < 1.2 | >598 | 1.5 ± 0.4 | 135 | < 1.2 | >598 | 1070 ± 452 | 760 to 1070 | 2900 ± 1070 | 33 ± 25.8 | reduced the infection | 0.01 ± 0.002 | 24 | – |
| Cc1nc2ccc(C(=O)N3CCC4(CC3)CC(=O)c3c(cnn3C(C)C)C4)cc2[nH]1 [PF-05175157] | – | 0.05 ± 0.003 | 590 ± 37 | 236 ± 11 | 0.024 ± 0.001 | Lack of virucidal effect | 2.7 ± 1.3 | – | 1 ± 0.3 | – | < 1.2 | – | – | – | – | – | did not affect WNV infection | – | 7 | IC50 ([1]; radiometric assay, geometric mean ± SEM, n = 3, read-out: IC50 human ACC2): 0.033 ± 0.004 µM; Viral load in plasma (serum) vs vehicle ([13]; WNV 1 × 10^4 PFU i.p., 3 and 4 days after infection): significant reduction of viral load in plasma; Viral RNA in the kidney vs vehicle [13, 16]: significant reduction in the amount of viral RNA in the kidney; Viral RNA in the lung vs vehicle [13, 16]: tendency for a reduction in the amount of viral RNA in the lung; Cmax ([9]; 15 mg/kg, single p.o. dose 15 mg/kg): 903 ± 495 ng/mL; AUC ([9]; single p.o. dose 15 mg/kg): 2170 ± 384 ng·h/mL; Tmax ([9]; single p.o. dose 15 mg/kg): 100 ± 121 min; WNV yield, drug maintained after virus inoculation (post-infection) [10]: reduced viral production; IC50 ([11]; radiometric assay, geometric mean ± SEM, n = 3, read-out: IC50 human ACC1): 0.027 ± 0.003 µM |
| O=C(O[C@@H]1Cc2c(O)cc(O)cc2O[C@@H]1c1cc(O)c(O)c(O)c1)c1cc(O)c(O)c(O)c1 [EGCG, (-)-Epicgallocathechin gallate, reference compound] | – | – | – | – | – | virucidal effect | – | – | – | – | – | – | – | – | – | – | – | – | – | – |
